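Values below derive from 48-hour exposures of cells grown in 96-well plates, with endpoints linearly interpolated between the two concentrations bracketing the appropriate inhibition level. Here, GI50 denotes the concentration required for 50% inhibition of growth.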 Active and inactive are the calls of the source. No stated cut-off is given here; in the data, active = GI50 up to about 1.1 µM and inactive = higher. Some results are limits rather than exact numbers.

Among the test systems are SF-268; HCC 2998; UACC-62; HCT-116; OVCAR-3; K562; OVCAR-8; HT-29; A549; HOP-92; SF-295; SK-MEL-5; A498; HCT-15; NCI-H522.
Common to all, as to test: NCI anticancer screen, dose series, 48 h

As for `COC(=O)C1=C(O)C(O)=C(C(=O)OC)CC1`, the GI50 is > 100 µM (inactive) with SF-268; > 100 µM (inactive) in the experiment on HCC 2998; > 100 µM (inactive) with UACC-62; 15.1 µM (inactive) with HCT-116; > 100 µM (inactive) in the experiment with OVCAR-3; > 100 µM (inactive) with K562. The GI50 was > 100 µM (inactive) with OVCAR-8; > 100 µM (inactive) in the experiment with HT-29; 37 µM (inactive) in the experiment on A549; > 100 µM (inactive) in the experiment with HOP-92; > 100 µM (inactive) with SF-295; > 100 µM (inactive) in the experiment on SK-MEL-5. Moreover, the results for the GI50 in the experiment with A498, in the experiment with HCT-15 and in the experiment with NCI-H522 were > 100 µM (inactive), greater than 100 µM and > 100 µM (inactive), respectively.
As for `N#CC1CC2(C(=O)C1=O)c1ccccc1-c1ccccc12` (stereo not given), the GI50 was > 100 µM (inactive) in the experiment on SF-268; > 100 µM (inactive) with HCC 2998; > 100 µM (inactive) with UACC-62; > 100 µM (inactive) in the experiment on HCT-116; 87.7 µM (inactive) in the experiment on OVCAR-3; 86.1 µM (inactive) with K562. For the same compound, the GI50 in the experiment with OVCAR-8, with HT-29, in the experiment on A549, in the experiment with SF-295, in the experiment with SK-MEL-5 and in the experiment with A498 was > 100 µM (inactive) in each case. For the same compound, the figures for the GI50 in the experiment on HCT-15 and in the experiment on NCI-H522 were greater than 100 µM and > 100 µM (inactive), respectively.
As to `COc1ccc(/C=N/N=C(\N)NO)cc1O`, the GI50 in the experiment on SF-268 is 32 µM (inactive); in the experiment with HCC 2998, 17.5 µM (inactive); in the experiment with UACC-62, 31.1 µM (inactive); in the experiment on HCT-116, 37.5 µM (inactive); in the experiment with K562, 82.8 µM (inactive); with HT-29, 40.9 µM (inactive). Also, the GI50 in the experiment on A549 is 27.6 µM (inactive); with HOP-92, 20.6 µM (inactive); with SK-MEL-5 it was 31.9 µM (inactive); in the experiment with HCT-15 it was 42.9 µM; with NCI-H522 it was > 10 µM (inactive).
`COc1ccc(Nc2nc3c(N)cc(C(F)(F)F)cc3nc2-c2ccccc2)cc1`: the GI50 in the experiment with SF-268 was 75.7 µM (inactive); with HCC 2998, > 100 µM (inactive); in the experiment on UACC-62, > 100 µM (inactive); in the experiment with HCT-116 it was > 100 µM (inactive); in the experiment with OVCAR-3, 33.6 µM (inactive); with K562, > 100 µM (inactive). For the same compound, the GI50 is > 100 µM (inactive) with OVCAR-8; > 100 µM (inactive) in the experiment on A549; 37.6 µM (inactive) with HOP-92; 71.3 µM (inactive) in the experiment on SF-295; 57.1 µM (inactive) with SK-MEL-5; > 100 µM (inactive) with A498. Moreover, the GI50 in the experiment on HCT-15 was greater than 100 µM; in the experiment with NCI-H522, 44.3 µM (inactive).
As to `C=CCc1cc(-c2cc(CC=C)c(O)c(CNC)c2)cc(CNC)c1O`, the GI50 in the experiment with SF-268 was 16.3 µM (inactive); in the experiment with HCC 2998, 16.3 µM (inactive); in the experiment on UACC-62, 18.1 µM (inactive); in the experiment with HCT-116 it was 14.7 µM (inactive); with OVCAR-3, 14.7 µM (inactive); in the experiment with K562 it was 10.4 µM (inactive). In addition, the GI50 is 17.6 µM (inactive) with OVCAR-8; 15.3 µM (inactive) with HT-29; 17.8 µM (inactive) with A549; 11.1 µM (inactive) in the experiment with HOP-92; 16.9 µM (inactive) with SF-295; 16.1 µM (inactive) in the experiment with SK-MEL-5. For the same compound, the figures for the GI50 with A498, in the experiment on HCT-15 and in the experiment on NCI-H522 were 20.3 µM (inactive), 16.6 µM and 14.8 µM (inactive), respectively.
As for `COC1(C)C(=O)N2C1N(C(=O)OC(C)(C)C)CC2(C)C` (stereo not given), the GI50 is > 100 µM (inactive) in the experiment with SF-268; > 100 µM (inactive) with HCC 2998; > 100 µM (inactive) in the experiment with UACC-62; 96.4 µM (inactive) in the experiment on HCT-116; > 100 µM (inactive) in the experiment on OVCAR-3; > 100 µM (inactive) with K562. The GI50 in the experiment on OVCAR-8, in the experiment with HT-29, in the experiment on A549, with HOP-92, in the experiment with SF-295 and with SK-MEL-5 was > 100 µM (inactive) in each case. Also, the GI50 is > 100 µM (inactive) with A498, 63.2 µM in the experiment on HCT-15 and > 100 µM (inactive) in the experiment on NCI-H522.
For `Cc1cccc2c1CCC21OC(=O)c2c1ccc1ccccc21` (stereo not given), the GI50 with SF-268 is > 100 µM (inactive); in the experiment on HCC 2998 it was 29.4 µM (inactive); with UACC-62 it was 40.3 µM (inactive); in the experiment with HCT-116, 52.2 µM (inactive); in the experiment on OVCAR-3, 26 µM (inactive); with K562, 21.7 µM (inactive). Also, the GI50 in the experiment on OVCAR-8 is 85.9 µM (inactive); with HT-29, 35.3 µM (inactive); in the experiment on A549, > 100 µM (inactive); with SF-295, 55.5 µM (inactive); in the experiment with SK-MEL-5, 19.6 µM (inactive); with A498, 16.8 µM (inactive). For the same compound, the results for the GI50 in the experiment with HCT-15 and in the experiment with NCI-H522 were 35.6 µM and > 100 µM (inactive), respectively.
`N#CC(C#N)=C1SCC(=O)CS1`: the GI50 with SF-268, in the experiment with HCC 2998, in the experiment on UACC-62, in the experiment on HCT-116, in the experiment on OVCAR-3 and in the experiment on K562 was > 100 µM (inactive) in each case. The GI50 with OVCAR-8, in the experiment with HT-29, in the experiment on A549, in the experiment with HOP-92, in the experiment on SF-295 and in the experiment on SK-MEL-5 was > 100 µM (inactive) each time. Further, the values for the GI50 in the experiment with A498, in the experiment with HCT-15 and with NCI-H522 were > 100 µM (inactive), greater than 100 µM and > 100 µM (inactive), respectively.
In the case of `CC(C)(C)NNC(=O)/C(=C/c1ccc([N+](=O)[O-])cc1)NC(=O)c1ccccc1`, the GI50 was 55.8 µM (inactive) with SF-268; > 100 µM (inactive) in the experiment on HCC 2998; > 100 µM (inactive) in the experiment with UACC-62; > 10 µM (inactive) in the experiment with HCT-116; > 100 µM (inactive) in the experiment on OVCAR-3; > 100 µM (inactive) in the experiment on K562. The GI50 in the experiment with OVCAR-8, in the experiment with HT-29, with A549, in the experiment on HOP-92, in the experiment on SF-295 and in the experiment with SK-MEL-5 was > 100 µM (inactive) in each case. For the same compound, the GI50 was > 100 µM (inactive) with A498, greater than 100 µM in the experiment on HCT-15 and 24.2 µM (inactive) in the experiment with NCI-H522.
Turning to `COC(=O)/C(C#N)=C1\CCC(C(=O)OC)N1C` (stereo not given), the GI50 in the experiment with SF-268, in the experiment with HCC 2998, with UACC-62, with HCT-116, with OVCAR-3 and in the experiment with K562 was > 100 µM (inactive) throughout. Besides, the GI50 with OVCAR-8, in the experiment with A549, in the experiment on HOP-92, with SF-295, in the experiment with SK-MEL-5 and with A498 was > 100 µM (inactive) each time. Besides, the GI50 in the experiment with HCT-15 is greater than 100 µM; in the experiment with NCI-H522, > 100 µM (inactive).
With `CCCC(O)c1cn(-c2cccc(S(=O)(=O)O)c2)nn1` (stereo not given), the GI50 in the experiment with SF-268, with HCC 2998, in the experiment on UACC-62, with HCT-116, with OVCAR-3 and with K562 was > 100 µM (inactive) each time. Also, the GI50 in the experiment with OVCAR-8, in the experiment with HT-29, in the experiment with A549, with HOP-92, in the experiment on SF-295 and with SK-MEL-5 was > 100 µM (inactive) in each case. For the same compound, the GI50 in the experiment with A498 was > 100 µM (inactive); with HCT-15, greater than 100 µM; in the experiment on NCI-H522, > 100 µM (inactive).
As to `CCOC(=O)C(=C=Cc1cccs1)C(=O)c1ccccc1`, the GI50 in the experiment on SF-268 was 15.9 µM (inactive); in the experiment on HCC 2998, 17.4 µM (inactive); in the experiment with UACC-62, 15.5 µM (inactive); in the experiment on HCT-116, 14.6 µM (inactive); in the experiment on K562 it was 37.4 µM (inactive); with OVCAR-8, 15.8 µM (inactive). In addition, the GI50 with HT-29 is 19.4 µM (inactive); in the experiment with A549 it was 18.9 µM (inactive); in the experiment on HOP-92 it was 5.15 µM (inactive); in the experiment on SF-295, 17.8 µM (inactive); in the experiment with SK-MEL-5 it was 3.38 µM (inactive); in the experiment with A498, 19.9 µM (inactive). Besides, the GI50 was 16.6 µM with HCT-15 and 15.1 µM (inactive) with NCI-H522.
With `C=Cc1c(-c2ccccc2)cnc2[nH]c3ccccc3c12`, the GI50 in the experiment with SF-268, in the experiment with HCC 2998, in the experiment on UACC-62, with HCT-116, in the experiment with OVCAR-3 and in the experiment on K562 was > 50 µM (inactive) throughout. Moreover, the GI50 in the experiment with OVCAR-8, in the experiment on HT-29, in the experiment with A549, in the experiment with SF-295, with SK-MEL-5 and with A498 was > 50 µM (inactive) throughout. Further, the GI50 in the experiment on HCT-15 was greater than 50 µM; with NCI-H522 it was > 50 µM (inactive).
For `O=C(NC12CC3CC(CC(F)(C3)C1)C2)c1ccccc1`, the GI50 in the experiment on HCC 2998, in the experiment on UACC-62, in the experiment on HCT-116, in the experiment with OVCAR-3, in the experiment with K562 and in the experiment on OVCAR-8 was > 100 µM (inactive) in each case. For the same compound, the GI50 in the experiment on HT-29, in the experiment with A549, in the experiment with HOP-92, with A498 and in the experiment with NCI-H522 was > 100 µM (inactive) throughout.
Regarding `O=C(COC(=O)c1cccc2c(=O)c3ccccc3[nH]c12)Nc1ccc(Cl)cc1`, the GI50 in the experiment with SF-268 was > 100 µM (inactive); in the experiment with HCC 2998, > 100 µM (inactive); in the experiment with UACC-62 it was 54.1 µM (inactive); with HCT-116, 13.6 µM (inactive); in the experiment on OVCAR-3, > 100 µM (inactive); with K562 it was > 100 µM (inactive). For the same compound, the GI50 was > 100 µM (inactive) in the experiment on OVCAR-8; 67.9 µM (inactive) in the experiment with HT-29; > 100 µM (inactive) with A549; 58.9 µM (inactive) in the experiment with HOP-92; 25.5 µM (inactive) in the experiment on SF-295; 44.2 µM (inactive) in the experiment with SK-MEL-5. Besides, the GI50 is 7.96 µM (inactive) with A498 and 23.9 µM (inactive) with NCI-H522.

For the origin of these results see ChEMBL document CHEMBL1201862, “PubChem BioAssay data set” (2004).
